Results published in patent US11292796B2 (SIGNAL PHARMACEUTICALS, LLC, priority 2008, dated 2022).

Biological target: T1, mTOR (Homo sapiens, UniProt P42345)
T1 construct: purchased Invitrogen PR8683A
Experiment: mTOR HTR-FRET assay
Assay type: biochemical
Details: read-out: Act. Level (IC50 in mTor HTR-FRET assay)
How it was run: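 Test compounds, taken from 10 mM DMSO stocks and diluted, were mixed with mTOR enzyme (0.200 μg/mL) in Tris buffer pH 7.4 with 100 mM NaCl, 0.1% Tween-20 and 1 mM DTT. ATP/substrate addition initiated the reaction, alongside compound-free controls.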

T1 sequence (P42345 1360-2549 limits assumed): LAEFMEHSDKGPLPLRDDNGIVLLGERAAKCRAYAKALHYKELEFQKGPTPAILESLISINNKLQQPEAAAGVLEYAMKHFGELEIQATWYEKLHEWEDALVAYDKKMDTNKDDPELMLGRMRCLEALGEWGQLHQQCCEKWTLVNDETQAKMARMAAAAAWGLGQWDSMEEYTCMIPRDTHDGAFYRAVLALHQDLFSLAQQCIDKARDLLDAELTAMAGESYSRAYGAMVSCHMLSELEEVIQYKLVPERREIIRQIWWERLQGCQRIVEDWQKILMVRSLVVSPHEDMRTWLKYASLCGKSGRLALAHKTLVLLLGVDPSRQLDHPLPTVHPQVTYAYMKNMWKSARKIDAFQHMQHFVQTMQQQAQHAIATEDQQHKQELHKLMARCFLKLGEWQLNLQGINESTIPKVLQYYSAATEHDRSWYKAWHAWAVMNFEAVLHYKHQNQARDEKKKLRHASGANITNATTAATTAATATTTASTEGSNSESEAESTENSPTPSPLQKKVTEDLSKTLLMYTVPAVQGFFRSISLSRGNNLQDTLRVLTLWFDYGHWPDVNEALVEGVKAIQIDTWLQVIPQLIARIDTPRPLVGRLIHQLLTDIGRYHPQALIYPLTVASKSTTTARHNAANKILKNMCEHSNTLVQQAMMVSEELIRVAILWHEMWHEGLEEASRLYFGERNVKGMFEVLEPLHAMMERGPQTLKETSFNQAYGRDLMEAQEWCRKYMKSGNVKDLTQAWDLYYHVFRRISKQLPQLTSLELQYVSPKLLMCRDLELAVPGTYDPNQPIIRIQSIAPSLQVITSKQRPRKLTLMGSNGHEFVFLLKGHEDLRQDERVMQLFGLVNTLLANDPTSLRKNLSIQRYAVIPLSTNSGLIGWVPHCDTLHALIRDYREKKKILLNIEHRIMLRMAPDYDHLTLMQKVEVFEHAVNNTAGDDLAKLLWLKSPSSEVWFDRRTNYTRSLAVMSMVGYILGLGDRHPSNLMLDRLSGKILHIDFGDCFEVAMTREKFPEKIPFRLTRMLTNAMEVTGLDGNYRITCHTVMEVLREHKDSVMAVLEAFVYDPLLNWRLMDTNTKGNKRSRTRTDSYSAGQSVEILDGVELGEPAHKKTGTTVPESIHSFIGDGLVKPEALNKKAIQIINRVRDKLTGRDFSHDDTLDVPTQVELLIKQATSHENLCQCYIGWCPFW

| Structure (SMILES) | IC50 |
| --- | --- |
| Cc1cc(-c2nc[nH]n2)c(F)cc1-c1cnc2c(n1)N(C(C)C)C(=O)CN2 [Example 176, 7-(5-fluoro-2-methyl-4-(1H-1,2,4-triazol-3-yl)phenyl)-1-isopropyl-3,4-dihydropyrazino[2,3-b]pyrazin-2(1H)-one] | 0.005 to 250 nM |
| Cc1cc(-c2nnc[nH]2)ccc1-c1cnc2c(n1)NC(C)(C)C(=O)N2 [Example 79, 3,3-dimethyl-6-(2-methyl-4-(4H-1,2,4-triazol-3-yl)phenyl)-3,4-dihydropyrazino[2,3-b]pyrazin-2(1H)-one] | 250 to 500 nM |
| Cc1cc(-c2nc[nH]n2)c(F)cc1-c1cnc2c(n1)N([C@H]1CC[C@H](O)CC1)CC(=O)N2 [Example 23, 6-(5-fluoro-2-methyl-4-(1H-1,2,4-triazol-3-yl)phenyl)-4-(trans-4-hydroxycyclohexyl)-3,4-dihydropyrazino[2,3-b]pyrazin-2(1H)-one] | 0.005 to 250 nM |
| CO[C@H]1CC[C@H](N2C(=O)CNc3ncc(-c4cnc(-c5nc[nH]n5)cc4C)nc32)CC1 [Example 202, 1-(trans-4-methoxycyclohexyl)-7-(4-methyl-6-(1H-1,2,4-triazol-3-yl)pyridin-3-yl)-3,4-dihydropyrazino[2,3-b]pyrazin-2(1H)-one] | 0.005 to 250 nM |
| Cc1cc(-c2nnc[nH]2)ccc1-c1cnc2c(n1)NC1(CCC1)C(=O)N2 [Example 65, 7′-(2-methyl-4-(4H-1,2,4-triazol-3-yl)phenyl)-1′H-spiro[cyclobutane-1,2′-pyrazino[2,3-b]pyrazin]-3′(4′H)-one] | 250 to 500 nM |
| CO[C@@H]1CC[C@@H](N2C(=O)CNc3ncc(-c4ccc(C(C)(C)O)nc4)nc32)C1 [Example 208, 7-(6-(2-hydroxypropan-2-yl)pyridin-3-yl)-1-((1R,3R)-3-methoxycyclopentyl)-3,4-dihydropyrazino[2,3-b]pyrazin-2(1H)-one] | 0.005 to 250 nM |
| Cc1cc(-c2cnc3c(n2)N(Cc2cccc(C(F)(F)F)c2)CC(=O)N3)cc2nc(N)[nH]c12 [Example 136, 6-(2-amino-7-methyl-1H-benzo[d]imidazol-5-yl)-4-(3-(trifluoromethyl)benzyl)-3,4-dihydropyrazino[2,3-b]pyrazin-2(1H)-one] | 500 to 1000 nM |
| Cc1nc(-c2nnc[nH]2)ccc1-c1cnc2c(n1)N1CCOCC1C(=O)N2 (stereo not drawn) [Example 100, 9-(6-(4H-1,2,4-triazol-3-yl)-2-methyl-3-pyridyl)-6,11,4a-trihydromorpholino[4,3-e]pyrazino[2,3-b]pyrazin-5-one] | 250 to 500 nM |
| COCCN1C(=O)CNc2ncc(-c3cc(F)c(-c4nc[nH]n4)cc3C)nc21 [Example 175, 7-(5-fluoro-2-methyl-4-(1H-1,2,4-triazol-3-yl)phenyl)-1-(2-methoxyethyl)-3,4-dihydropyrazino[2,3-b]pyrazin-2(1H)-one] | 0.005 to 250 nM |
| Cc1cc(-c2nnc[nH]2)ccc1-c1cnc2c(n1)N(CC1CCOCC1)C1(CCC1)C(=O)N2 [Example 62, 7′-(2-methyl-4-(4H-1,2,4-triazol-3-yl)phenyl)-1′-((tetrahydro-2H-pyran-4-yl)methyl)-1′H-spiro[cyclobutane-1,2′-pyrazino[2,3-b]pyrazin]-3′(4′H)-one] | 0.005 to 250 nM |
| O=C1CNc2ncc(-c3ccc(-c4nc[nH]n4)nc3)nc2N1C1CCOCC1 [Example 162, 7-(6-(1H-1,2,4-triazol-3-yl)pyridin-3-yl)-1-(tetrahydro-2H-pyran-4-yl)-3,4-dihydropyrazino[2,3-b]pyrazin-2(1H)-one] | 0.005 to 250 nM |
| Cc1cc(-c2nc[nH]n2)c(F)cc1-c1cnc2c(n1)N([C@H]1CC[C@@H](O)CC1)C(=O)CN2 [Example 161, 7-(5-fluoro-2-methyl-4-(1H-1,2,4-triazol-3-yl)phenyl)-1-(cis-4-hydroxycyclohexyl)-3,4-dihydropyrazino[2,3-b]pyrazin-2(1H)-one] | 0.005 to 250 nM |
| NC(=O)c1cccc(-c2cnc3c(n2)N(CCC2CCOCC2)C(=O)CN3)c1 [Example 205, 3-(7-oxo-8-(2-(tetrahydro-2H-pyran-4-yl)ethyl)-5,6,7,8-tetrahydropyrazino[2,3-b]pyrazin-2-yl)benzamide] | 1000 to 10000 nM |
| COCCN1CC(=O)Nc2ncc(-c3ccc(-c4nnc[nH]4)c(F)c3C)nc21 [Example 49, 6-(3-fluoro-2-methyl-4-(4H-1,2,4-triazol-3-yl)phenyl)-4-(2-methoxyethyl)-3,4-dihydropyrazino[2,3-b]pyrazin-2(1H)-one] | 0.005 to 250 nM |
| CCN1C(=O)CNc2ncc(-c3cnc4[nH]ccc4c3)nc21 [Example 193, 1-ethyl-7-(1H-pyrrolo[2,3-b]pyridin-5-yl)-3,4-dihydropyrazino[2,3-b]pyrazin-2(1H)-one] | 250 to 500 nM |
| Cc1cc(-c2nnc[nH]2)ccc1-c1cnc2c(n1)N1CCCC1C(=O)N2 (stereo not drawn) [Example 140, 8-(4-(4H-1,2,4-triazol-3-yl)-2-methylphenyl)-5,10,3a-trihydropyrazino[2,3-b]pyrrolidino[1,2-e]pyrazin-4-one] | 0.005 to 250 nM |
| CCN1c2nc(-c3ccc(-c4nnc[nH]4)cc3C)cnc2NC(=O)C1(C)C [Example 72, 4-ethyl-3,3-dimethyl-6-(2-methyl-4-(4H-1,2,4-triazol-3-yl)phenyl)-3,4-dihydropyrazino[2,3-b]pyrazin-2(1H)-one] | 0.005 to 250 nM |

| Structure (SMILES) | IC50 |
| --- | --- |
| CC(C)CN1CC(=O)Nc2ncc(-c3ccc(C(C)(C)O)nc3)nc21 [Example 106, 6-(6-(2-hydroxypropan-2-yl)pyridin-3-yl)-4-isobutyl-3,4-dihydropyrazino[2,3-b]pyrazin-2(1H)-one] | 500 to 1000 nM |
| CNc1nc2c(C)cc(-c3cnc4c(n3)N(CC3CCOCC3)C(=O)CN4)cc2[nH]1 [Example 263, 7-(4-methyl-2-(methylamino)-1H-benzo[d]imidazol-6-yl)-1-((tetrahydro-2H-pyran-4-yl)methyl)-3,4-dihydropyrazino[2,3-b]pyrazin-2(1H)-one] | 0.005 to 250 nM |
| Cc1cc(-c2nnc[nH]2)ccc1-c1cnc2c(n1)N1CCCCC1C(=O)N2 (stereo not drawn) [Example 120, 9-(4-(4H-1,2,4-triazol-3-yl)-2-methylphenyl)-6,11,4a-trihydropiperidino[1,2-e]pyrazino[2,3-b]pyrazin-5-one] | 0.005 to 250 nM |
| Cc1cc(-c2nnc[nH]2)ccc1-c1cnc2c(n1)N(CCC1CCOCC1)C(C)C(=O)N2 (stereo not drawn) [Example 107, 3-methyl-6-(2-methyl-4-(4H-1,2,4-triazol-3-yl)phenyl)-4-(2-(tetrahydro-2H-pyran-4-yl)ethyl)-3,4-dihydropyrazino[2,3-b]pyrazin-2(1H)-one] | 0.005 to 250 nM |
| CO[C@H]1CC[C@H](CN2C(=O)CNc3ncc(-c4cnc(C(N)=O)cc4C)nc32)CC1 [Example 206, 5-(8-((trans-4-methoxycyclohexyl)methyl)-7-oxo-5,6,7,8-tetrahydropyrazino[2,3-b]pyrazin-2-yl)-4-methylpicolinamide] | 1000 to 10000 nM |
| Cc1cc(-c2nc[nH]n2)c(F)cc1-c1cnc2c(n1)N(C[C@H]1CC[C@H](O)CC1)C(=O)CN2 [Example 168, 7-(5-fluoro-2-methyl-4-(1H-1,2,4-triazol-3-yl)phenyl)-1-((trans-4-hydroxycyclohexyl)methyl)-3,4-dihydropyrazino[2,3-b]pyrazin-2(1H)-one] | 0.005 to 250 nM |
| CO[C@H]1CC[C@H](N2CC(=O)Nc3ncc(-c4ccc(C(C)(C)O)nc4)nc32)C1 [Example 55, 6-(6-(2-hydroxypropan-2-yl)pyridin-3-yl)-4-((1S,3S)-3-methoxycyclopentyl)-3,4-dihydropyrazino[2,3-b]pyrazin-2(1H)-one] | 1000 to 10000 nM |
| CCN1C(=O)CNc2ncc(-c3cc(F)c(-c4nc[nH]n4)cc3C)nc21 [Example 177, 1-ethyl-7-(5-fluoro-2-methyl-4-(1H-1,2,4-triazol-3-yl)phenyl)-3,4-dihydropyrazino[2,3-b]pyrazin-2(1H)-one] | 0.005 to 250 nM |
| O=C1CNc2ncc(-c3ccnc(O)c3)nc2N1CCC1CCOCC1 [Example 178, 7-(2-hydroxypyridin-4-yl)-1-(2-(tetrahydro-2H-pyran-4-yl)ethyl)-3,4-dihydropyrazino[2,3-b]pyrazin-2(1H)-one] | 500 to 1000 nM |
| C[C@H]1C(=O)Nc2ncc(-c3ccc(C(C)(C)O)nc3)nc2N1CCC1CCOCC1 [Example 132, (S)-6-(6-(2-hydroxypropan-2-yl)pyridin-3-yl)-3-methyl-4-(2-(tetrahydro-2H-pyran-4-yl)ethyl)-3,4-dihydropyrazino[2,3-b]pyrazin-2(1H)-one] | 0.005 to 250 nM |
| CC(C)(O)c1ccc(-c2cnc3c(n2)N(CCc2ccccc2)CC(=O)N3)cn1 [Example 124, 6-(6-(2-hydroxypropan-2-yl)pyridin-3-yl)-4-phenethyl-3,4-dihydropyrazino[2,3-b]pyrazin-2(1H)-one] | 250 to 500 nM |
| Cc1cc(-c2nc[nH]n2)c(F)cc1-c1cnc2c(n1)N(C[C@H]1CC[C@@H](O)CC1)C(=O)CN2 [Example 165, 7-(5-fluoro-2-methyl-4-(1H-1,2,4-triazol-3-yl)phenyl)-1-((cis-4-hydroxycyclohexyl)methyl)-3,4-dihydropyrazino[2,3-b]pyrazin-2(1H)-one] | 0.005 to 250 nM |
| Cc1cc(-c2nnc[nH]2)ccc1-c1cnc2c(n1)N1CCOCC1C(=O)N2 (stereo not drawn) [Example 138, 9-(4-(4H-1,2,4-triazol-3-yl)-2-methylphenyl)-6,11,4a-trihydromorpholino[4,3-e]pyrazino[2,3-b]pyrazin-5-one] | 0.005 to 250 nM |
| CCN1CC(=O)Nc2ncc(-c3ccc(-c4nc[nH]n4)nc3)nc21 [Example 22, 6-(6-(1H-1,2,4-triazol-3-yl)pyridin-3-yl)-4-ethyl-3,4-dihydropyrazino[2,3-b]pyrazin-2(1H)-one] | 0.005 to 250 nM |
| CO[C@H]1C[C@@H]2C(=O)Nc3ncc(-c4ccc(-c5nnc[nH]5)cc4C)nc3N2C1 [Example 112, 8-(4-(4H-1,2,4-triazol-3-yl)-2-methylphenyl)(2S,3aR)-2-methoxy-5,10,3a-trihydropyrazino[2,3-b]pyrrolidino[1,2-e]pyrazin-4-one] | 0.005 to 250 nM |
| COCCN1CC(=O)Nc2ncc(-c3cnc(C(N)=O)cc3C)nc21 [Example 32, 5-(8-(2-methoxyethyl)-6-oxo-5,6,7,8-tetrahydropyrazino[2,3-b]pyrazin-2-yl)-4-methylpicolinamide] | 0.005 to 250 nM |
